Test results taken from patent publication US20050227355A1, “Serum-free cell culture media” (priority 1996, published 2005).
“Also recorded” adds a separate entry of the source.

Assays:
[1] = Stability of sterol against precipitation in medium; format: physicochemical
Description: The optimum sterol for cell culture should meet the following specifications: a) be stable against precipitation in medium at 37° C., b) stimulate cell growth and viability as well as does cholesterol, or better, and c) for adherent cells: produce a high surface tension in the medium for optimum adherence of the cells to the surface by hydrophobic forces.

[2] = test system: Vero, CHO-K1 and 1E6 hybridoma cells; experiment: Cell growth and morphology in media containing sterols other than cholesterol (Example 8); format: cell-based; conditions: test concentration 2 μg/ml
Description: The basal media used were DME/F12 for adherent cells, and RPMI-X for suspension cells. The basal media were supplemented by SSR2 described above, i.e. a solution containing 20 mg/ml PLURONIC F68, about 4 mM EDTA, about 3 mM Fe, about 40 mM sodium citrate/citric acid, about 3 mM aurintricarboxylic acid and about 1% trace elements. […] For hybridoma cells, this was still further supplemented by ethanolamine at 20 μM. Each cul-ture was run in duplicate. As a control, cholesterol was also used, but in this case the basal medium was supplemented by ‘Solution Cx’ or ‘Solution Dx’ described above, as appropriate to the cell type. The negative controls referred to below were in each case a cell culture containing no test substance (sterol). Cells were cultivated through 2 passages for adherent cells, and 3 passages for the hybridoma line having regard to the greater difficulty of morphological scoring in suspension cultures, this being compensated by the longer culture period. All cultures of the same experiment were subcultured using an identical split ratio, for example 1:10; this ratio being adjusted in the individual experiments to suit the growth rate of the positive control (see above). […] Then adherent cells were trypsinized and subcultured further for the second passage—followed by counting the number of cells when confluent for the second time. Hybridoma cells, growing in suspension, were simply diluted in medium for each new passage. Counting of all kinds of cells were generally performed using a standard Bürker chamber, and viability determined by Trypan Blue exclusion (only viable cells were counted). In some experiments, where feasible, cells were counted directly in the microscope viewing field using a calibrated grid. […] The morphological index is mainly based on three properties: single cell morphology, number of cells, and the degree of uniform distribution of cells around the culture surface (‘cellular behaviour’).

[3] = Surface tension of the medium; format: physicochemical
[4] = test system: 1E6 Mouse hybridoma; experiment: Sterol analogues in suspended cell culture (Example 8); format: cell-based; conditions: test concentration 2 μg/ml
Description: The basal media were supplemented by SSR2 described above, i.e. a solution containing 20 mg/ml PLURONIC F68, about 4 mM EDTA, about 3 mM Fe, about 40 mM sodium citrate/citric acid, about 3 mM aurintricarboxylic acid and about 1% trace elements. […] Each cul-ture was run in duplicate. As a control, cholesterol was also used, but in this case the basal medium was supplemented by ‘Solution Cx’ or ‘Solution Dx’ described above, as appropriate to the cell type. The negative controls referred to below were in each case a cell culture containing no test substance (sterol).

[5] = test system: adherent cells; experiment: Growth stimulating effect of alcohols in adherent cell culture (Example 10); format: cell-based; conditions: concentrations around 0.1%
Text: Cell culture was again carried out as described in Example 8, but with the addition of a number of alcohols rather than sterols.
Test concentration: 1×=0.1%, or 5×=0.5%.

[6] = test system: Hybridoma cells; experiment: Growth promoting effect of alcohols on hybridoma cells (Example 1); format: cell-based, Mouse; conditions: for effect on cell growth (inhibition of cell growth): RPMI-SR3 protein-free medium, alcohol up to 1.0% by vol
Description: • a) Hybridoma cells were cultured in RPMI 1640 supplemented with solutions A and B, described above plus 20 mM ethanolamine (referred to as RPMI-SR3), and by way of comparison in the same medium further supplemented with 10 mg/ml albumen (5% by vol.) or in RPMI 1640 supplemented with 10% v/v horse serum.

CC(C)CCC[C@@H](C)[C@H]1CC[C@H]2[C@@H]3CC=C4C[C@@H](O)CC[C@]4(C)[C@H]3CC[C@]12C [Cholesterol]
stability in medium [1]: somewhat unstable in media
solubility in the final medium at storage temperature ([1]; 4° C., with PLURONIC F68 and ethanol): kept in solution
solubility in the final medium at cultivation temperature ([1]; 37° C., cell density below 10^5 cells/ml): gradually precipitate

CC(=O)O[C@H]1CC[C@@]2(C)C(=CC[C@H]3[C@@H]4CC[C@H]([C@H](C)CCCC(C)C)[C@@]4(C)CC[C@@H]32)C1 [Cholesteryl Acetate]
cell growth and viability / suitability as replacement of cholesterol [2]: barely affected
cell growth and viability / suitability as replacement of cholesterol ([2]; listed as cholesteryl acetate): good results
stability in medium [1]: stable in solution

C[C@H](CCC(=O)O)[C@H]1CC[C@H]2[C@@H]3[C@H](O)C[C@@H]4C[C@H](O)CC[C@]4(C)[C@H]3C[C@H](O)[C@]12C [Cholic acid]
surface tension of the medium [3]: low surface tension
substitution for cholesterol in suspended cell culture [4]: appears possible to substitute cholic acid for cholesterol

CCO [Ethanol]
effects on cell growth and viability [5]: positive effects on cell growth and viability
effect on cell growth (inhibition of cell growth) [6]: positive effects on cell growth
effect on cell growth (inhibition of cell growth) ([6]; listed as ethanol): negative inhibition (i.e. promotion) of cell growth
growth promoting effect in protein or serum supplemented media ([6]; medium with 10 mg/ml albumen or 10% v/v horse serum): no growth promoting effect; also recorded: not apparent

OCCO [Ethylene Glycol]
effects on cell growth and viability [5]: positive effects on cell growth and viability

CO [Methanol]
effect on cell growth (inhibition of cell growth) [6]: positive effects on cell growth

CC(O)CO (centres unmarked) [propylene glycol]
effects on cell growth and viability [5]: positive effects on cell growth and viability

CC[C@H](CC[C@@H](C)[C@H]1CC[C@H]2[C@@H]3CC=C4C[C@@H](O)CC[C@]4(C)[C@H]3CC[C@]12C)C(C)C [β-sitosterol]
cell growth and viability / suitability as replacement of cholesterol [2]: functions well as a stimulant of cell growth and viability
stability in medium [1]: less than satisfactory
